Data published in patent publication US20210154170A1, “METHODS OF TREATING NEUROPATHIC PAIN” (Biogen MA Inc., priority 2018, published 2021).

Tested on: healthy participants
Experiment: Phase 1 cross-over study, ambulatory blood pressure monitoring (ABPM)
Type: in vivo, human
Details: for DBP: Change >10 and absolute value >80 mmHg, observations / SBP: Change >10 and absolute value >130 mmHg, observations: 300-400 mg repeat dose; for BIIB074-Placebo difference in change of 24 h average DBP / BIIB074-Placebo difference in change of 24 h average SBP / LS Mean change in 24 h average DBP from baseline / LS Mean change in 24 h average SBP from baseline: outpatient
Experimental: This was a Phase 1, randomized, double-blind, placebo-controlled, repeat dose, 2-period cross-over study to investigate the effect of BIIB074 300-400 mg bid on ambulatory blood pressure (ABP) in healthy participants (FIG. 2). The study comprised: screening (to occur a maximum of 30 days before the first baseline assessment); two 36-day treatment periods, each preceded by a baseline visit and separated by a 7-day washout (to minimize possible carry over effects); and a follow-up period of 7-14 days after last dose. Prior to this study, no females had received BIIB074; for this reason, a single dose BIIB074 session at the dose level of 400 mg was also conducted in female participants one week prior to the period 1 baseline visit. Following this session, some participants were predicted to exceed the predefined PK limit (area under the plasma concentration-time curve [AUC] 97 μg·h/mL) when receiving 400 mg bid at steady state. Therefore, in the subsequent phases of the study, all female participants received a lower dose of 300 mg bid (males received 400 mg bid).
Participants were assigned to treatment sequences in accordance with a randomization schedule generated by Discovery Biometrics, prior to the start of the study, using validated software. Study treatment was BIIB074 400 mg bid for males/300 mg bid for females, or placebo, for 36 days. Prior to dosing, volunteers were randomized into one of the following treatment sequences, BIIB074 (period 1):placebo (period 2) or placebo (period 1):BIIB074 (period 2), and more specifically AB and BA if male and CAB and CBA if female, where A=placebo, B=BIIB074 400 mg bid in males and 300 mg bid in females, C=BIIB074 400 mg single dose in females. Randomization numbers were assigned by the site ensuring there was a balance of sequences (AB/BA and CAB/CBA) in each group. Periods 1 and 2 were double-masked to patients and study personnel.
The primary endpoint was change in 24 h average SBP and DBP from baseline to day 36 as determined by ABPM. Secondary outcome measures included: change in 24 h average SBP and DBP from baseline to days 4 and 15; change in average SBP and DBP within a 12 h dosing interval from baseline to days 14 and 35 (inpatient); change in 24 h average ambulatory heart rate from baseline to days 4, 15 and 36; proportion of participants whose 24 h SBP and DBP increased by <5, 5-9, 10-14, 15-19, and >20 mm Hg compared with baseline; PK parameters of BIIB074 following a single oral dose in healthy female participants, and following repeated oral doses given twice daily to healthy male and female participants; PK/pharmacodynamic (PD) analyses to examine the correlation between ABP and plasma levels and/or metrics of the systemic exposure of BIIB074.
ABP was collected over 24 hours on an outpatient basis at baseline and at days 4, 15 and 36, and over 12 hours on an inpatient basis at baseline, and at days 14 and 35. The ABPM device was placed on the non-dominant arm (except in clinical situations that prohibited measuring BP in the non-dominant arm). BP and heart rate were measured every 15 minutes.
Non-inferiority was based on the one-sided 95% confidence interval (CI) for BIIB074-placebo excluding an effect of >5 mmHg in SBP or DBP. It was planned to recruit approximately 60 participants in order to obtain a minimum of 48 evaluable for ABPM during the repeat dose phase, for at least 90% power, assuming a within-subject standard deviation (SDw) of 8.21 mmHg.
ABPM data were analyzed using a repeated measures mixed effects model, whereby fixed effects were treatment, day, treatment*day, period, average baseline*day, period adjusted baseline*day, sex and treatment*sex; random effect was subject; and repeated effect was day. All summary statistics were carried out using SAS 8.02 for UNIX running under the Harmonisation of Analysis and Reporting Program (HARP) environment. […]

Q: Which results are given for Cl.NC(=O)[C@@H]1CC[C@H](c2ccc(OCc3ccccc3F)cc2)N1 [Example 1, (5R)-5-(4-{[(2-Fluorophenyl)methyl]oxy}phenyl)-L-prolinamide hydrochloride]?
A: DBP: Change >10 and absolute value >80 mmHg, observations (Day 4, outpatient 24 h): 137 (10.6%) n (%); SBP: Change >10 and absolute value >130 mmHg, observations (Day 4, outpatient 24 h): 116 (9.0%) n (%); DBP: Change >10 and absolute value >80 mmHg, observations (Day 15, outpatient 24 h): 109 (8.3%) n (%); SBP: Change >10 and absolute value >130 mmHg, observations (Day 15, outpatient 24 h): 95 (7.2%) n (%); DBP: Change >10 and absolute value >80 mmHg, observations (Day 36, outpatient 24 h): 86 (6.9%) n (%); SBP: Change >10 and absolute value >130 mmHg, observations (Day 36, outpatient 24 h): 63 (5.0%) n (%); Slope of linear relationship DBP vs observed plasma concentration (PK/PD analysis, inpatient ABPM): approximately 0.00077±0.00012 mmHg/(ng/mL); Slope of linear relationship SBP vs observed plasma concentration (PK/PD analysis, inpatient ABPM): ~0.00056±0.00013 mmHg/(ng/mL); Average increase of SBP with plasma concentration (PK/PD analysis, over the 24 h interval): < 2 mmHg; Upper bound of one-sided 95% CI for BIIB074-placebo (SBP on day 4, outpatient): ~2.2 mmHg; Inpatient 12 h ABPM, difference to placebo (after 36 days of therapy): no significant differences; Increase in outpatient 24 h SBP or DBP (day 36, distribution of individual changes): no evidence to suggest a significant increase; Observations with DBP increase >10 mmHg and absolute value >80 mmHg (day 36, outpatient): 6.9%; Observations with SBP increase >10 mmHg and absolute value >130 mmHg (day 36, outpatient): 5.0%; Observations with increase from baseline in SBP>30 mmHg (day 36, outpatient 24 h (0%)): 4/1249; Observations with increase from baseline in DBP>20 mmHg (day 36, outpatient 24 h (3%)): 35/1249; Increase in change from baseline for SBP, DBP, and heart rate (inpatient ABPM, days 14 and 35): 2.0-2.5 mmHg/bpm; Upper bound of one-sided 95% CI for BIIB074-placebo (majority of SBP and DBP comparisons on days 4, 15, 36): < 2 mmHg; Non-inferiority to placebo, outpatient 24 h SBP and DBP (one-sided 95% CI excluding effect >5 mmHg): Non-inferiority of BIIB074 compared to placebo was demonstrated; BIIB074-Placebo difference in change of 24 h average DBP (Day 4): 0.789 mmHg; BIIB074-Placebo difference in change of 24 h average SBP (Day 4): 1.006 mmHg; LS Mean change in 24 h average DBP from baseline (Day 4, 300-400 mg bid): 1.856 mmHg; LS Mean change in 24 h average SBP from baseline (Day 4, 300-400 mg bid): 2.372 mmHg; BIIB074-Placebo difference in change of 24 h average DBP (Day 15): 0.645 mmHg; BIIB074-Placebo difference in change of 24 h average SBP (Day 15): 0.294 mmHg; LS Mean change in 24 h average DBP from baseline (Day 15, 300-400 mg bid): 0.907 mmHg; LS Mean change in 24 h average SBP from baseline (Day 15, 300-400 mg bid): 0.915 mmHg; BIIB074-Placebo difference in change of 24 h average DBP (Day 36): 0.287 mmHg; BIIB074-Placebo difference in change of 24 h average SBP (Day 36): −0.507 mmHg; LS Mean change in 24 h average DBP from baseline (Day 36, 300-400 mg bid): 0.201 mmHg; LS Mean change in 24 h average SBP from baseline (Day 36, 300-400 mg bid): −0.327 mmHg; Change in SBP and DBP, outpatient and inpatient ABPM (repeat doses for 36 days): lack of clinically relevant change
